Source: ChEMBL document CHEMBL5338823, “Discovery of Novel 5,6-Dihydro-1,2,4-triazine Derivatives as Efficacious Glucagon-Like Peptide-1 Receptor Agonists” (J Med Chem, 2023)

How the values were obtained:
[1] = biological target: Glucagon-like peptide 1 receptor (Homo sapiens, UniProt P43220); test: Agonist activity at N-terminal HA-tagged human GLP-1R expressed in HEK293 cells assessed as effect on intracellular cAMP accumulation incubated for 30 mins by LANCA ultra cAMP assay; assay type: functional, cell-based
[2] = biological target: hERG (KCNH2) (Homo sapiens, UniProt Q12809); test: Inhibition of hERG at 40 uM relative to control
[3] = biological target: Voltage-gated inwardly rectifying potassium channel KCNH2 (Homo sapiens, UniProt Q12809); test: Inhibition of hERG
[4] = Stability in human liver microsomes assessed as half-life at 1 uM measured upto 60 mins in the presence of NADPH by LC-MS/MS analysis; assay type: ADME, Microsome
[5] = Stability in rat liver microsomes assessed as half-life at 1 uM measured upto 60 mins in the presence of NADPH by LC-MS/MS analysis; assay type: ADME, Microsome
[6] = Stability in mouse liver microsomes assessed as half-life at 1 uM measured upto 60 mins in the presence of NADPH by LC-MS/MS analysis; assay type: ADME, Microsome
[7] = Stability in human liver microsomes assessed as intrinsic clearance at 1 uM measured upto 60 mins in the presence of NADPH by LC-MS/MS analysis; assay type: ADME, Microsome; settings: 1 h
[8] = Stability in rat liver microsomes assessed as intrinsic clearance at 1 uM measured upto 60 mins in the presence of NADPH by LC-MS/MS analysis; assay type: ADME, Microsome; settings: 1 h
[9] = Stability in mouse liver microsomes assessed as intrinsic clearance at 1 uM measured upto 60 mins in the presence of NADPH by LC-MS/MS analysis; assay type: ADME, Microsome; settings: 1 h
[10] = Drug concentration in C57BL/6J mouse plasma at 5 mg/kg, po measured after 1 hrs by LC-MS/MS analysis; assay type: ADME, organism-based
[11] = Drug concentration in C57BL/6J mouse plasma at 5 mg/kg, po measured after 4 hrs by LC-MS/MS analysis; assay type: ADME, organism-based
[12] = Apparent permeability across apical to basolateral side in human Caco-2 cells at 10 uM measured after 95 mins by LC-MS/MS analysis; assay type: ADME, cell-based

hERG (KCNH2), sequence (Q12809 whole entry): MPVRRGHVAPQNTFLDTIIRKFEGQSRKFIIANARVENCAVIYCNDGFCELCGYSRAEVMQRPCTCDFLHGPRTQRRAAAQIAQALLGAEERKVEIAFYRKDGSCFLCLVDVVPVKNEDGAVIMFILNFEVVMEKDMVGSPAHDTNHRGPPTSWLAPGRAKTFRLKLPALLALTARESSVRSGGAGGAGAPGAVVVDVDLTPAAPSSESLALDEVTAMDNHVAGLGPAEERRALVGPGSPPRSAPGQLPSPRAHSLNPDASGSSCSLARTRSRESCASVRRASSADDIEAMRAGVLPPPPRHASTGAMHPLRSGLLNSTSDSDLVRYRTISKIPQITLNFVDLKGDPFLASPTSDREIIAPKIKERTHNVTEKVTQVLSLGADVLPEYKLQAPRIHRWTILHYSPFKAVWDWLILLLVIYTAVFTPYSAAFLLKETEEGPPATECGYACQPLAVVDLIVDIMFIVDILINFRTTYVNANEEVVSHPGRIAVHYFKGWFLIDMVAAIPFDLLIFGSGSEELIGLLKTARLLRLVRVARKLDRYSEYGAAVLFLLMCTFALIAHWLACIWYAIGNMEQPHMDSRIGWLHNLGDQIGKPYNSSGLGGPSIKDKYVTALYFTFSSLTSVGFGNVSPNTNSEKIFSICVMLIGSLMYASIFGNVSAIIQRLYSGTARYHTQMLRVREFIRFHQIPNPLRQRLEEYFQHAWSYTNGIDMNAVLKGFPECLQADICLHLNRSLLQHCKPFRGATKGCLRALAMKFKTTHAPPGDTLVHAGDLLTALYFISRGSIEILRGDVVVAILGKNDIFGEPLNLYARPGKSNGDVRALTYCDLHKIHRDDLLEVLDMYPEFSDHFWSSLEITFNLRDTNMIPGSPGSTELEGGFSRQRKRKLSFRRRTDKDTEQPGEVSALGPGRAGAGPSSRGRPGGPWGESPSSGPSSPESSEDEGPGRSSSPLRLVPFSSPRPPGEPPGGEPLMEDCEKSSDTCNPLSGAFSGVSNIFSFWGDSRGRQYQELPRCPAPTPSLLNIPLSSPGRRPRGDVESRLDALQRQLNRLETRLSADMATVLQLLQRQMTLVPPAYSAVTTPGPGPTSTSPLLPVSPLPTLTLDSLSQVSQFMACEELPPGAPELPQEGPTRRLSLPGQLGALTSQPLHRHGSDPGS
Voltage-gated inwardly rectifying potassium channel KCNH2, sequence (Q12809 whole entry): as above
Glucagon-like peptide 1 receptor, sequence (P43220 whole entry): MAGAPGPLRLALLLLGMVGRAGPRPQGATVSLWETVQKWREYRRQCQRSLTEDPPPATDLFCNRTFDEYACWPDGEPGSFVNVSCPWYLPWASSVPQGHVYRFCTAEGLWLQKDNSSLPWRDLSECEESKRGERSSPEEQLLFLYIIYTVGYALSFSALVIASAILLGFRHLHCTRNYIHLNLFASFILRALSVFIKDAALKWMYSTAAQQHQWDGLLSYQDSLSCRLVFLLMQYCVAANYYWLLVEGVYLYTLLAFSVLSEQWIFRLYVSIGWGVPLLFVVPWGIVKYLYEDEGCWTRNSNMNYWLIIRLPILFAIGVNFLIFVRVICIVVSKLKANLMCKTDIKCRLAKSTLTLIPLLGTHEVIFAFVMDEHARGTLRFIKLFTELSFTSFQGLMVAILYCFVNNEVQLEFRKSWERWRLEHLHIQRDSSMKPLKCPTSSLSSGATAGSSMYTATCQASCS

Row | EC50 [1] [µM] | half-life at 1 µM [4] [min] | half-life at 1 µM [5] [min] | half-life at 1 µM [6] [min] | CLH [7] [mL/min/g] | CLH [8] [mL/min/g] | CLH [9] [mL/min/g] | concentration at 1 h [10] [ng/mL] | concentration at 4 h [11] [ng/mL] | Papp A→B at 1.583 h, 10 µM [12] [×10⁻⁶ cm/s] | Structure (SMILES) | inhibition at 40 µM [2] [%] | IC50 [3] [µM]
1 | 5.01 |  |  |  |  |  |  |  |  |  | N#Cc1ccc(COc2cccc(N3CCC4(CN(Cc5nc6ccc(C(=O)O)cc6n5C[C@@H]5CCO5)C4)C3)n2)c(F)c1 |  | 
2 | > 10 |  |  |  |  |  |  |  |  |  | O=C(O)c1ccc2nc(Cn3ccc(-c4cccc(OCc5ccc(Cl)cc5F)n4)nc3=O)n(C[C@@H]3CCO3)c2c1 |  | 
3 |  | 90 | 36 | 31 | 23 | 59 | 67 |  |  |  | O=C(O)c1cc(F)c2nc(CN3CCN(c4cccc(OCc5ccc(Cl)c6c5OCC6)n4)C=N3)n(C[C@@H]3CCO3)c2c1 | 51 | 0.05
4 |  | 100 | 47 | 43 | 21 | 45 | 49 |  |  |  | COc1cc(Cl)ccc1COc1cccc(N2C=NN(Cc3nc4c(F)cc(C(=O)O)cc4n3C[C@@H]3CCO3)CC2)n1 | 44 | > 40
5 |  | 327 | 134 | 182 | 6 | 16 | 12 | 12 | 3 | 0.19 | COc1cc(C#N)ccc1COc1cccc(N2C=NN(Cc3nc4c(F)cc(C(=O)O)cc4n3C[C@@H]3CCO3)CC2)n1 | 50 | > 40
6 | > 10 |  |  |  |  |  |  |  |  |  | N#Cc1ccc(COc2cccc(N3C[C@H]4CN(Cc5nc6ccc(C(=O)O)cc6n5C[C@@H]5CCO5)C[C@H]4C3)n2)c(F)c1 |  | 
7 |  | 149 | 63 | 124 | 14 | 33 | 17 |  |  |  | N#Cc1ccc(COc2cccc(N3C=NN(Cc4nc5c(F)cc(C(=O)O)cc5n4C[C@@H]4CCO4)CC3)n2)c2occc12 | 30 | > 40
8 |  | 166 | 95 | 103 | 13 | 22 | 21 |  |  |  | O=C(O)c1cc(F)c2nc(CN3CCN(c4cccc(OCc5ccc(Cl)c6cc(F)oc56)n4)C=N3)n(C[C@@H]3CCO3)c2c1 |  | 
